From patent US4459290A, “C-23-Modified derivatives of OMT, pharmaceutical compositions and method of use” (priority 1982, dated 1984)
In brackets after ≈: the same amount, converted by molar mass. Where two headings read alike, the source gives them in different places.

Tests used:
[1] = tested on: Streptococcus sp. 80; assay: MIC, broth-dilution microtiter test (Table VII); assay type: cell-based
Method: (§1) Especially noteworthy is the improved activity against gram-negative bacteria for several derivatives when compared to the activity of OMT. […] The MIC's in Tables V and VI were determined by standard agar-dilution assays. The MIC's in Table VII were obtained using a conventional broth-dilution microtiter test.

[2] = tested on: Pasteurella multocida 60A; assay: MIC, broth-dilution microtiter test (Table VII); assay type: cell-based
Method: as §1

[3] = tested on: Mycoplasma synoviae; assay: MIC, broth-dilution microtiter test (Table VII); assay type: cell-based
Method: as §1

[4] = tested on: Staphylococcus aureus; assay: MIC, broth-dilution microtiter test (Table VII); assay type: cell-based
Method: as §1

[5] = tested on: Mycoplasma gallisepticum; assay: MIC, broth-dilution microtiter test (Table VII); assay type: cell-based
Method: as §1

[6] = tested on: Pasteurella hemolytica 23C; assay: MIC, broth-dilution microtiter test (Table VII); assay type: cell-based; settings: P. hemolytica 23C
Method: as §1

[7] = tested on: Pasteurella hemolytica 22C; assay: MIC, broth-dilution microtiter test (Table VII); assay type: cell-based; settings: P. hemolytica 22C
Method: as §1

[8] = tested on: Pasteurella multocida 40G; assay: MIC, broth-dilution microtiter test (Table VII); assay type: cell-based
Method: as §1

[9] = tested on: Pasteurella hemolytica 41D; assay: MIC, broth-dilution microtiter test (Table VII); assay type: cell-based; settings: P. hemolytica 41D
Method: as §1

[10] = tested on: Pasteurella multocida 17E; assay: MIC, broth-dilution microtiter test (Table VII); assay type: cell-based
Method: as §1

[11] = tested on: Pasteurella multocida 22A; assay: MIC, broth-dilution microtiter test (Table VII); assay type: cell-based
Method: as §1

[12] = tested on: Pasteurella multocida 68C; assay: MIC, broth-dilution microtiter test (Table VII); assay type: cell-based; settings: P. multocida 68C, broth-dilution microtiter
Method: as §1

[13] = tested on: Mycoplasma hyorhinis; assay: MIC, broth-dilution microtiter test (Table VII); assay type: cell-based; settings: M. hyorhinis, broth-dilution microtiter
Method: as §1

[14] = tested on: Pasteurella multocida; assay: Protection of one-day-old chicks against Pasteurella multocida infection (Table IX); assay type: in vivo; settings: subcutaneous 30 mg/kg × 2, 1 and 4 hours post-challenge
Method: The C-23 modified derivatives of OMT have also shown in vivo antibacterial activity against infections induced by gram-negative bacteria. Table IX summarizes the results of tests in which illustrative compounds were evaluated against Pasteurella infections in one-day-old chicks. The compounds were administered by subcutaneous injection at a dosage of 30 mg/kg, 1 and 4 hours post-challenge of the chicks with Pasteurella multocida (0.1 ml of a twenty-hour tryptose broth culture of an avian P. multocida given subcutaneously). In the tests, all ten non-medicated infected chicks died within 24 hours of Pasteurella challenge.

[15] = tested on: Streptococcus Group 9960; assay: MIC, standard agar-dilution assay (Table V); assay type: cell-based
Method: as §1

[16] = tested on: Klebsiella pneumoniae KAE; assay: MIC, standard agar-dilution assay (Table V); assay type: cell-based; settings: K. pneumoniae KAE, agar dilution
Method: as §1

[17] = tested on: Klebsiella pneumoniae X26; assay: MIC, standard agar-dilution assay (Table V); assay type: cell-based; settings: K. pneumoniae X26, agar dilution
Method: as §1

[18] = tested on: Escherichia coli EC14; assay: MIC, standard agar-dilution assay (Table V); assay type: cell-based; settings: E. coli EC14, agar dilution
Method: as §1

[19] = tested on: Staphylococcus aureus V41; assay: MIC, standard agar-dilution assay (Table V); assay type: cell-based
Method: as §1

[20] = tested on: Staphylococcus aureus S13E; assay: MIC, standard agar-dilution assay (Table V); assay type: cell-based
Method: as §1

[21] = tested on: Escherichia coli N10; assay: MIC, standard agar-dilution assay (Table V); assay type: cell-based; settings: E. coli N10, agar dilution
Method: as §1

[22] = tested on: Staphylococcus epidermidis EPI1; assay: MIC, standard agar-dilution assay (Table V); assay type: cell-based
Method: as §1

[23] = tested on: Staphylococcus aureus X400; assay: MIC, standard agar-dilution assay (Table V); assay type: cell-based
Method: as §1

[24] = tested on: Staphylococcus epidermidis EPI2; assay: MIC, standard agar-dilution assay (Table V); assay type: cell-based
Method: as §1

[25] = tested on: Staphylococcus aureus X1.1; assay: MIC, standard agar-dilution assay (Table V); assay type: cell-based
Method: as §1

[26] = tested on: Streptococcus Group D X66; assay: MIC, standard agar-dilution assay (Table V); assay type: cell-based
Method: as §1

[27] = tested on: Streptococcus pneumoniae Park I; assay: microbe, parasite or virus in culture; assay type: cell-based
Method: as §1

[28] = tested on: Haemophilus influenzae Holt; assay: MIC, standard agar-dilution assay (Table V); assay type: cell-based
Method: (§2) The MIC's in Tables V and VI were determined by standard agar-dilution assays. The MIC's in Table VII were obtained using a conventional broth-dilution microtiter test.

[29] = tested on: Escherichia coli TEM; assay: MIC, standard agar-dilution assay (Table V); assay type: cell-based; settings: E. coli TEM, agar dilution
Method: as §2

[30] = tested on: Haemophilus influenzae R252; assay: MIC, standard agar-dilution assay (Table V); assay type: cell-based
Method: as §2

[31] = tested on: Streptococcus pyogenes C203; assay: MIC, standard agar-dilution assay (Table V); assay type: cell-based
Method: as §2

[32] = tested on: Shigella sonnei N9; assay: MIC, standard agar-dilution assay (Table V); assay type: cell-based
Method: as §1

[33] = Klebsiella pneumoniae, read-out: MIC
[34] = Escherichia coli, read-out: MIC

CCC1OC(=O)CC(O)C(C)C(OC2OC(C)C(O)C(N(C)C)C2O)C(CC=O)CC(C)C(=O)C=CC(C)=CC1CNC(=O)CNC(=O)C(C)N (centres unmarked) [Compound 14]
MIC ([1]; Streptococcus sp. 80, broth-dilution microtiter): 25 µg/mL (≈ 34.5 µM)
MIC ([2]; P. multocida 60A, avian isolate, broth-dilution microtiter): > 50 µg/mL
MIC ([3]; M. synoviae, broth-dilution microtiter): 6.25 µg/mL (≈ 8.62 µM)
MIC ([4]; S. aureus, broth-dilution microtiter): > 50 µg/mL
MIC ([5]; M. gallisepticum, broth-dilution microtiter): 12.5 µg/mL (≈ 17.2 µM)
MIC [6]: > 50 µg/mL
MIC [7]: > 50 µg/mL
MIC ([8]; P. multocida 40G, broth-dilution microtiter): > 50 µg/mL
MIC [9]: > 50 µg/mL
MIC ([10]; P. multocida 17E, bovine isolate, broth-dilution microtiter): > 50 µg/mL
MIC ([11]; P. multocida 22A, broth-dilution microtiter): > 50 µg/mL
MIC [12]: > 50 µg/mL
MIC [13]: 50 µg/mL (≈ 69 µM)
Number of deaths/number treated [14]: 10/10
MIC ([15]; Streptococcus Group 9960, agar dilution): 64 µg/mL (≈ 88.3 µM)
MIC [16]: -- (MIC ≥ 128)
MIC [17]: -- (MIC ≥ 128)
MIC [18]: -- (MIC ≥ 128)
MIC ([19]; S. aureus V41, penicillin-resistant strain, agar dilution): 64 µg/mL (≈ 88.3 µM)
MIC ([20]; S. aureus S13E, agar dilution): 64 µg/mL (≈ 88.3 µM)
MIC [21]: -- (MIC ≥ 128)
MIC ([22]; S. epidermidis EPI1, agar dilution): 64 µg/mL (≈ 88.3 µM)
MIC ([23]; S. aureus X400, methicillin-resistant strain, agar dilution): 128 µg/mL (≈ 177 µM)
MIC ([24]; S. epidermidis EPI2, agar dilution): 64 µg/mL (≈ 88.3 µM)
MIC ([25]; S. aureus X1.1, agar dilution): 64 µg/mL (≈ 88.3 µM)
MIC ([26]; Streptococcus Group D X66, agar dilution): 64 µg/mL (≈ 88.3 µM)
MIC ([27]; S. pneumoniae Park I, agar dilution): 16 µg/mL (≈ 22.1 µM)
MIC ([28]; H. influenzae Holt, ampicillin-sensitive strain, agar dilution): -- (MIC ≥ 128)
MIC [29]: -- (MIC ≥ 128)
MIC ([30]; H. influenzae R252, ampicillin-resistant strain, agar dilution): -- (MIC ≥ 128)
MIC ([31]; S. pyogenes C203, agar dilution): 16 µg/mL (≈ 22.1 µM)

CCC1OC(=O)CC(O)C(C)C(OC2OC(C)C(O)C(N(C)C)C2O)C(CC=O)CC(C)C(=O)C=CC(C)(OCCc2ccccc2)C2CC12 (centres unmarked) [Compound 18]
MIC ([1]; Streptococcus, SP.80): 1.56 µg/mL (≈ 2.22 µM)
MIC ([2]; Pasteurella multocida, 60A): 12.5 µg/mL (≈ 17.8 µM)
MIC ([3]; Mycoplasmopsis synoviae): 3.12 µg/mL (≈ 4.45 µM)
MIC ([4]; Staphylococcus aureus): 6.25 µg/mL (≈ 8.9 µM)
MIC ([5]; Mycoplasmoides gallisepticum): 1.56 µg/mL (≈ 2.22 µM)
MIC ([6]; Pasteurella, read-out: MIC): 25 µg/mL (≈ 35.6 µM)
MIC ([7]; Pasteurella, read-out: MIC): 25 µg/mL (≈ 35.6 µM)
MIC ([8]; Pasteurella multocida, 40G): 12.5 µg/mL (≈ 17.8 µM)
MIC ([9]; Pasteurella, read-out: MIC): 25 µg/mL (≈ 35.6 µM)
MIC ([10]; Pasteurella multocida, 17E): 12.5 µg/mL (≈ 17.8 µM)
MIC ([11]; Pasteurella multocida, 22A): 12.5 µg/mL (≈ 17.8 µM)
MIC ([12]; Pasteurella multocida, read-out: MIC): 25 µg/mL (≈ 35.6 µM)
MIC ([13]; read-out: MIC): 25 µg/mL (≈ 35.6 µM)
MIC ([15]; GROUP9960): 2 µg/mL (≈ 2.85 µM)
MIC [16, 33]: > 128 µg/mL
MIC [17, 33]: 16 µg/mL (≈ 22.8 µM)
MIC [32]: > 128 µg/mL
MIC [18, 34]: > 128 µg/mL
MIC ([19]; Staphylococcus aureus, V41): 2 µg/mL (≈ 2.85 µM)
MIC ([20]; Staphylococcus aureus, S13E): 1 µg/mL (≈ 1.42 µM)
MIC [21, 34]: > 128 µg/mL
MIC ([22]; Staphylococcus epidermidis, EPI1): 1 µg/mL (≈ 1.42 µM)
MIC ([23]; Staphylococcus aureus, X400): 2 µg/mL (≈ 2.85 µM)
MIC ([24]; Staphylococcus epidermidis, EPI2): 2 µg/mL (≈ 2.85 µM)
MIC ([25]; Staphylococcus aureus, X1.1): 1 µg/mL (≈ 1.42 µM)
MIC [26]: 1 µg/mL (≈ 1.42 µM)
MIC ([27]; Streptococcus pneumoniae): 0.25 µg/mL (≈ 0.356 µM)
MIC ([28]; Haemophilus influenzae): 8 µg/mL (≈ 11.4 µM)
MIC [29, 34]: 64 µg/mL (≈ 91.2 µM)
MIC ([30]; Haemophilus influenzae, R252): 8 µg/mL (≈ 11.4 µM)
MIC ([31]; Streptococcus pyogenes, C203): 1 µg/mL (≈ 1.42 µM)
